Holding throughout (assay): Bliss interaction score (quartile over a dose matrix) (fitness difference); higher = more antagonism (negative = synergy)
The test system of assay [1] is B. subtilis 168. In short, it runs like this: (§1)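 The Bliss score subtracts expected fitness, the product of the single-drug fitness values, from observed fitness. Fitness is plate-normalised OD595 at entry into stationary phase, relative to the robust no-drug mean and capped at 1, with single-drug fitness inferred from combinations. Summaries are quartiles over technical, biological and donor/recipient replicates.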

Assay [2] deals with S. pneumoniae D39V. In short, it runs like this: as §1
The subject of assay [3] is S. aureus DSM 20231. In short, it runs like this:
as §1

Assay [4] deals with S. aureus Newman. In short, it runs like this: as §1

The structures appear in SMILES notation.
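Note: first quartile when negative (synergy) and third quartile when positive (antagonism).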

As to `CN(C)[C@@H]1C(O)=C(C(N)=O)C(=O)[C@@]2(O)C(O)=C3C(=O)c4c(O)ccc(Cl)c4[C@@](C)(O)[C@H]3C[C@@H]12` [Clortetracycline] + CC1=C\[C@@H](O)CC(=O)Cc2nc(co2)C(=O)N2CCC=C2C(=O)O[C@H](C(C)C)[C@H](C)/C=C/C(=O)NC\C=C\1 [Virginiamycin M1], the Bliss interaction score in assay [1] is 0.0837; in assay [2], -0.0413; in assay [3], -0.0704; in assay [4], -0.049.

Consider `CO/N=C(\C(=O)N[C@@H]1C(=O)N2C(C(=O)O)=C(COC(N)=O)CS[C@H]12)c1ccco1` [Cefuroxime] + CN(C)[C@@H]1C(O)=C(C(N)=O)C(=O)[C@@]2(O)C(O)=C3C(=O)c4c(O)ccc(Cl)c4[C@@](C)(O)[C@H]3C[C@@H]12 [Clortetracycline], for which the Bliss interaction score in assay [1] is -0.0786; in assay [2], 0.112; in assay [3], -0.269; in assay [4] it was -0.0677.

Turning to `O=C(O)c1cn(C2CC2)c2cc(N3CCNCC3)c(F)cc2c1=O` [Ciprofloxacin] + CC1(C)S[C@@H]2[C@H](NC(=O)Cc3ccccc3)C(=O)N2[C@H]1C(=O)O [PenicillinG], the Bliss interaction score was 0.0481 in assay [1], 0.0662 in assay [2], -0.0624 in assay [3] and -0.0565 in assay [4].

Take `CN(C)[C@@H]1C(O)=C(C(N)=O)C(=O)[C@@]2(O)C(O)=C3C(=O)c4c(O)ccc(Cl)c4[C@@](C)(O)[C@H]3C[C@@H]12` [Clortetracycline] + O=C(O[C@@H]1Cc2c(O)cc(O)cc2O[C@@H]1c1cc(O)c(O)c(O)c1)c1cc(O)c(O)c(O)c1 [EGCG]: the Bliss interaction score in assay [1] was -0.096; in assay [2], -0.0892; in assay [3], 0.114; in assay [4] it was -0.0462.

For the compound `CO/N=C(\C(=O)N[C@@H]1C(=O)N2C(C(=O)O)=C(COC(C)=O)CS[C@H]12)c1csc(N)n1` [Cefotaxime] + CC[C@H]1OC(=O)[C@H](C)[C@@H](O[C@H]2C[C@@](C)(OC)[C@@H](O)[C@H](C)O2)[C@H](C)[C@@H](O[C@@H]2O[C@H](C)C[C@H](N(C)C)[C@H]2O)[C@](C)(OC)C[C@@H](C)C(=O)[C@H](C)[C@@H](O)[C@]1(C)O [Clarithromycin], the Bliss interaction score in assay [1] is 0.0567; in assay [2], 0.0611; in assay [3] it was 0.0514; in assay [4] it was -0.0626.

As for `CC(=O)Oc1ccccc1C(=O)O` [Acetylsalicylicacid] + CC(=O)O[C@H]1C[C@@]2(C)[C@@H](C[C@@H](O)[C@H]3[C@@]4(C)CC[C@@H](O)[C@@H](C)[C@@H]4CC[C@@]32C)/C1=C(\CCC=C(C)C)C(=O)O [Fusidic acid], the Bliss interaction score in assay [1] is -0.0821; in assay [2], 0.0675; in assay [3] it was 0.0354; in assay [4], -0.0211.

Take `CC1(C)S[C@@H]2[C@H](NC(=O)Cc3ccccc3)C(=O)N2[C@H]1C(=O)O` [PenicillinG] + CCCCCCCCCC(=O)N[C@@H]1[C@H]([C@@H]([C@H](O[C@H]1OC2=C3C=C4C=C2OC5=C(C=C(C=C5)[C@H]([C@H]6C(=O)N[C@@H](C7=C(C(=CC(=C7)O)OC8[C@H]([C@H]([C@@H]([C@H](O8)CO)O)O)O)C9=C(C=CC(=C9)[C@H](C(=O)N6)NC(=O)[C@@H]4NC(=O)[C@@H]1C2=CC(=CC(=C2)OC2=C(C=CC(=C2)[C@H](C(=O)N[C@H](CC2=CC(=C(O3)C=C2)Cl)C(=O)N1)N)O)O)O)C(=O)O)O[C@H]1[C@@H]([C@H]([C@@H]([C@H](O1)CO)O)O)NC(=O)C)Cl)CO)O)O [Teicoplanin]: the Bliss interaction score was -0.176 in assay [1] (main component drawn), -0.0521 in assay [2] (main component drawn), -0.0396 in assay [3] (main component drawn) and 0.0744 in assay [4] (main component drawn).

In the case of `CN(C)[C@@H]1C(O)=C(C(N)=O)C(=O)[C@@]2(O)C(O)=C3C(=O)c4c(O)ccc(Cl)c4[C@@](C)(O)[C@H]3C[C@@H]12` [Clortetracycline] + Cc1ncc([N+](=O)[O-])n1CCO [Metronidazole], the Bliss interaction score turned out to be 0.141 in assay [1], 0.104 in assay [2], 0.0551 in assay [3] and 0.0714 in assay [4].

Turning to `CC(=O)Oc1ccccc1C(=O)O` [Acetylsalicylicacid] + Cc1cc(NS(=O)(=O)c2ccc(N)cc2)no1 [Sulfamethoxazol], the Bliss interaction score in assay [1] was 0.0808; in assay [2], -0.0493; in assay [3], -0.0892; in assay [4], -0.0624.

For `Cc1ncc([N+](=O)[O-])n1CCO` [Metronidazole] + Clc1ccc(COC(Cn2ccnc2)c2ccc(Cl)cc2Cl)c(Cl)c1 [Miconazole], the Bliss interaction score in assay [1] came out at 0.0471; in assay [2] it was 0.0478; in assay [3], 0.0327; in assay [4], 0.0522.

For the compound `CO/N=C(\C(=O)N[C@@H]1C(=O)N2C(C(=O)O)=C(COC(N)=O)CS[C@H]12)c1ccco1` [Cefuroxime] + CC[C@H]1OC(=O)[C@H](C)C(=O)[C@H](C)[C@@H](O[C@@H]2O[C@H](C)C[C@H](N(C)C)[C@H]2O)[C@](C)(OC)C[C@@H](C)C(=O)[C@H](C)[C@H]2N(CCCCn3cnc(-c4cccnc4)c3)C(=O)O[C@]12C [Telithromycin], the Bliss interaction score was 0.0752 in assay [1], 0.0493 in assay [2], -0.0813 in assay [3] and 0.272 in assay [4].

`N#CC(C#N)=NNc1cccc(Cl)c1` [CCCP] + C[C@@H](O)[C@H]1C(=O)N2C(C(=O)O)=C(SCCNC=N)C[C@H]12 [Imipenem]: the Bliss interaction score in assay [1] is -0.0769; in assay [2], 0.0923; in assay [3] it was 0.0449; in assay [4], 0.0181.

In the case of `CN(C)[C@@H]1C(O)=C(C(N)=O)C(=O)[C@@]2(O)C(O)=C3C(=O)c4c(O)ccc(Cl)c4[C@@](C)(O)[C@H]3C[C@@H]12` [Clortetracycline] + CCC[C@@H]1C[C@@H](C(=O)N[C@@H]([C@H]2O[C@H](SC)[C@H](O)[C@@H](O)[C@H]2O)[C@@H](C)O)N(C)C1 [Lincomycin], the Bliss interaction score in assay [1] was 0.103; in assay [2] it was 0.036; in assay [3] it was -0.171; in assay [4] it was -0.144.

`Cc1ncc([N+](=O)[O-])n1CCO` [Metronidazole] + CC[C@H]1OC(=O)[C@H](C)C(=O)[C@H](C)[C@@H](O[C@@H]2O[C@H](C)C[C@H](N(C)C)[C@H]2O)[C@](C)(OC)C[C@@H](C)C(=O)[C@H](C)[C@H]2N(CCCCn3cnc(-c4cccnc4)c3)C(=O)O[C@]12C [Telithromycin]: the Bliss interaction score in assay [1] came out at 0.0709; in assay [2], 0.157; in assay [3], 0.0599; in assay [4], 0.0357.

Consider `CC(=O)Oc1ccccc1C(=O)O` [Acetylsalicylicacid] + Clc1ccc(COC(Cn2ccnc2)c2ccc(Cl)cc2Cl)c(Cl)c1 [Miconazole], for which the Bliss interaction score is 0.0955 in assay [1], -0.0711 in assay [2], 0.0658 in assay [3] and 0.0722 in assay [4].

Consider `CC(=O)Oc1ccccc1C(=O)O` [Acetylsalicylicacid] + C[n+]1ccc(-c2cc[n+](C)cc2)cc1 [Paraquat], for which the Bliss interaction score is 0.067 in assay [1], -0.0664 in assay [2], 0.067 in assay [3] and 0.0558 in assay [4].

Consider `CC(=O)Oc1ccccc1C(=O)O` [Acetylsalicylicacid] + CCC[C@@H]1C[C@@H](C(=O)N[C@@H]([C@H]2O[C@H](SC)[C@H](O)[C@@H](O)[C@H]2O)[C@H](C)Cl)N(C)C1 [Clindamycin], for which the Bliss interaction score in assay [1] was 0.0404; in assay [2], -0.105; in assay [3], 0.0574; in assay [4], 0.0829.

Turning to `CO/N=C(\C(=O)N[C@@H]1C(=O)N2C(C(=O)O)=C(COC(C)=O)CS[C@H]12)c1csc(N)n1` [Cefotaxime] + CC(=O)O[C@H]1C[C@@]2(C)[C@@H](C[C@@H](O)[C@H]3[C@@]4(C)CC[C@@H](O)[C@@H](C)[C@@H]4CC[C@@]32C)/C1=C(\CCC=C(C)C)C(=O)O [Fusidic acid], the Bliss interaction score in assay [1] worked out at 0.0613; in assay [2] it was 0.11; in assay [3], 0.0189; in assay [4], 0.0487.

Take `CO/N=C(\C(=O)N[C@@H]1C(=O)N2C(C(=O)O)=C(COC(C)=O)CS[C@H]12)c1csc(N)n1` [Cefotaxime] + CO[C@@]12[C@H](COC(N)=O)C3=C(C(=O)C(C)=C(N)C3=O)N1C[C@@H]1N[C@@H]12 [MitomycinC]: the Bliss interaction score in assay [1] was -0.135; in assay [2], 0.118; in assay [3] it was 0.0387; in assay [4], 0.0256.

Take `CC(=O)Oc1ccccc1C(=O)O` [Acetylsalicylicacid] + CN(N=O)C(=O)N[C@@H](C=O)[C@@H](O)[C@H](O)[C@H](O)CO [Streptozotocin]: the Bliss interaction score in assay [1] was 0.0788; in assay [2] it was -0.0923; in assay [3], -0.0369; in assay [4], 0.0716.

Regarding `CC1(C)S[C@@H]2[C@H](NC(=O)Cc3ccccc3)C(=O)N2[C@H]1C(=O)O` [PenicillinG] + CN(C)c1cc(NC(=O)CNC(C)(C)C)c(O)c2c1C[C@H]1C[C@H]3[C@H](N(C)C)C(O)=C(C(N)=O)C(=O)[C@@]3(O)C(O)=C1C2=O [Tigecycline], the Bliss interaction score in assay [1] is 0.0408; in assay [2], -0.103; in assay [3], -0.0277; in assay [4] it was 0.0515.

For the compound `CC(=O)Oc1ccccc1C(=O)O` [Acetylsalicylicacid] + Cn1nnc(-c2ccc(-c3ccc(N4C[C@H](CO)OC4=O)cc3F)cn2)n1 [Tedizolid], the Bliss interaction score is -0.184 in assay [1], 0.0802 in assay [2], -0.124 in assay [3] and 0.0641 in assay [4].

As for `CN(C)[C@@H]1C(O)=C(C(N)=O)C(=O)[C@@]2(O)C(O)=C3C(=O)c4c(O)ccc(Cl)c4[C@@](C)(O)[C@H]3C[C@@H]12` [Clortetracycline] + COc1cc(Cc2cnc(N)nc2N)cc(OC)c1OC [Trimethoprim], the Bliss interaction score is 0.135 in assay [1], -0.0376 in assay [2], 0.0736 in assay [3] and 0.102 in assay [4].

Turning to `CC(=O)Oc1ccccc1C(=O)O` [Acetylsalicylicacid] + CO/N=C(\C(=O)N[C@@H]1C(=O)N2C(C(=O)O)=C(COC(N)=O)CS[C@H]12)c1ccco1 [Cefuroxime], the Bliss interaction score is 0.177 in assay [1], 0.057 in assay [2], -0.628 in assay [3] and 0.0943 in assay [4].

Turning to `N#CC(C#N)=NNc1cccc(Cl)c1` [CCCP] + Oc1cc(Cl)ccc1Oc1ccc(Cl)cc1Cl [Triclosan], the Bliss interaction score is 0.0443 in assay [1], 0.0866 in assay [2], 0.0338 in assay [3] and -0.021 in assay [4].

Take `CC(=O)Oc1ccccc1C(=O)O` [Acetylsalicylicacid] + Oc1cc(Cl)ccc1Oc1ccc(Cl)cc1Cl [Triclosan]: the Bliss interaction score in assay [1] is 0.129; in assay [2], -0.0513; in assay [3], -0.114; in assay [4] it was -0.0273.

For the origin of these results see the supplement of paper PMC10627819.
